Patent publication US20250052751A1, “COMPOSITIONS AND METHODS FOR DIAGNOSING AUTOIMMUNE AQUAPORINOPATHY” (The Regents of the University of California, priority 2023, published 2025)

Key:
[1] = system: draining lymph node cells; test: Proliferation assay, ^3H-thymidine incorporation after s.c. peptide immunization; assay type: cell-based, mouse
Protocol: (§1) FIGS. 2A-2F. Pathogenic AQP4 determinants bind I-A^b with high affinity and elicit proliferation of AQP4: I-A^b-specific TCR-bearing T cells in AQP4-deficient mice. (FIG. 2A) WT or AQP4^−/− mice were immunized s.c. with peptides indicated. Peptide-specific proliferation of draining lymph node cells was measured by 3H-thymidine incorporation (mean±SEM, representative of five experiments). (FIG. 2B) Lymph node cells from AQP4 immunized WT or AQP4^−/− mice were cultured for 3 days with cognate antigen under Th17 polarizing conditions. AQP4 p133-149- and p202-218-specific Th17 cells from AQP4/donors induce paralysis in WT recipient mice. (FIG. 2C) IEDB, an in silico method for predicting determinants within proteins that bind MHC alleles, was used to identify AQP4 amino acid sequences anticipated to bind I-A^b for recognition by AQP4-specific/I-A^b-restricted CD4^+ T cells. 1/IC50 is plotted against the first amino acid for each overlapping AQP4 15 mer. Peaks correspond to increased predicted binding affinity. (FIG. 2D) Purified I-A^b molecules were tested biochemically for peptide binding affinity using a competitive binding assay between a radiolabeled high-affinity competitor peptide and unlabeled peptides (22). Lower IC50 values indicate higher binding affinity. Boxed amino acids designate the core binding regions. (FIGS. 2E-2F) Lymph node T cells isolated from WT or AQP4−/− mice immunized with AQP4 p133-149 or p202-218 were stained with I-A^b:p133-149 and […] tetramers, bead-enriched and analyzed by flow cytometry. […] Each data point represents one mouse. ****p<0.0001 (Mann Whitney U test).
(§2) FIGS. 4A-4B. Negative selection of AQP4 p133-149-reactive T cells is bypassed partially in mice deficient in thymic AQP4 expression. (FIG. 4A) AQP4^−/− WT, Foxn1cre-AQP4^fl/fl, Aire^−/−, or Foxn1cre-Fezf2^fl/fl mice were immunized s.c. with peptides indicated. Peptide-specific proliferation of draining lymph node cells was measured by 3H-thymidine incorporation (mean±SEM, representative of five experiments). Comparisons within the five experiments for p133-149 at […]: WT vs. AQP4^−/− (p=0.008), WT vs. Foxn1cre-AQP4^fl/fl (p=0.008). (FIG. 4B) Ten days after peptide immunization, CD4^+ T cells from draining lymph nodes were analyzed for I-A^b: peptide tetramer binding by flow cytometry. Each data point represents the frequency (mean±SEM) of CD4^+ T cells bound to cognate antigen-tetramer in a single mouse. […] For p133-149: WT vs. Aire^−/− (p=0.9), WT vs. Foxn1cre-Fezf2^fl/fl (p=0.3). For p202-218: WT vs. Foxn1cre-AQP4^fl/fl (p=0.3), WT vs. Aire^−/− (p=0.06).
(§3) Proliferation assays. Mice were immunized subcutaneously (s.c.) with 100 μg of AQP4, MOG or IRBP peptide in CFA containing 400 μg M. tuberculosis H37Ra (Difco Laboratories). Lymph nodes were harvested on day 10-12 and cultured at 2×10^5/well with various concentrations of peptide in triplicate wells for 72 hours. […] of ^3H-thymidine was added 18 hours prior to cell harvest, and data are presented as counts per minute (CPM). Stimulation Index (SI) was calculated by dividing CPM in wells with Ag by CPM in wells with no antigen controls of each assay test group.

[2] = molecular target: T1, MHC class II I-A^b molecules (Mus musculus, UniProt P14434+P14483); test: I-A^b affinity assay (competitive binding against a radiolabeled high-affinity peptide); conditions: purified I-A^b; unlabeled peptide vs radiolabeled high-affinity competitor peptide
T1 construct: made in house
T1 sequence (P14434 24-256): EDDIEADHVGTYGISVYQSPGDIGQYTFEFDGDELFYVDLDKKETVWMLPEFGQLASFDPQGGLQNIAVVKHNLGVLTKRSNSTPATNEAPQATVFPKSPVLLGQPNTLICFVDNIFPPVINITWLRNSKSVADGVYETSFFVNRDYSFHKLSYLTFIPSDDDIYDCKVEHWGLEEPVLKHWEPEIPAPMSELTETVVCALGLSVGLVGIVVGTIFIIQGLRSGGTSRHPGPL
T1 sequence (P14483 28-265): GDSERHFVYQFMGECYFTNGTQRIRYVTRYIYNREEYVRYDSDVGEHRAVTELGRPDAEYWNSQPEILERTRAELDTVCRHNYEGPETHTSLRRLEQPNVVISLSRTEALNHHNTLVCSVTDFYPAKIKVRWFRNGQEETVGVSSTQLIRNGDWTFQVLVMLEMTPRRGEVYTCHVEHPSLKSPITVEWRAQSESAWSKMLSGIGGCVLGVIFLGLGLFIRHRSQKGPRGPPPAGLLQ
Protocol: as §1
Both AQP4 p133-149 and p202-218 are predicted to bind MHC II (I-A^b) with high affinity according to the Immune Epitope Database (IEDB) (FIG. 2C), an in silico method for predicting determinants within proteins that bind allele-specific MHC molecules for presentation to T cells (21). We have now examined AQP4 peptide affinity for I-A^b biochemically. I-A^b molecules that were purified by affinity chromatography were tested in a competitive binding assay between a radiolabeled high-affinity competitor peptide and unlabeled peptides (22). Indeed, peptides containing the two pathogenic AQP4 T cell determinants bound I-A^b with higher affinity than the nonpathogenic AQP4 p24-35 T cell epitope or MOG p35-55 (FIG. 2D).
I-A^b affinity Assay. Purification of MHC class II I-A^b molecules by affinity chromatography, and the performance of assays based on the inhibition of binding of a high affinity radiolabeled peptide to quantitatively measure peptide binding, were performed as described (22). Lower IC50 values indicate higher binding affinity. Excellent binders have affinities less than 100 nM and good binders have affinities less than 1000 nM.

TCRα deficient mice = test: Adoptive transfer of peptide-primed, AQP4 201-220-cultured Th17 cells into TCRα deficient mice; assay type: in vivo, mouse; conditions: for clinical CNS autoimmune disease after transfer of primed Th17 cells: donor AQP4-deficient mice primed with the peptide, cells cultured with AQP4 201-220, 2×10^7 T cells into TCRα deficient mice; for meningeal and parenchymal infiltrates vs OVA primed T cells: recipients of primed donor T cells, histological analysis
Protocol: FIGS. 9A-9C. T cells reactive to AQP5, an autoantigen in Sjögren's syndrome also recognize AQP4, the autoantigen in NMO, and can cause CNS autoimmune disease. (FIG. 9A) AQP4-deficient mice were immunized with AQP4 p201-220, AQP5 p174-190 or OVA 323-339. 10-12 days later lymphocytes from draining lymph nodes are removed and cultured with AQP4 201-220 under Th17 polarizing conditions for 72 hours. 2×10^7 T cells were transferred into TCRα deficient mice, followed by 200 ng Pertussis toxin at days 0 and 2. […] Statistics performed using ANOVA with Tukey's test for multiple comparisons. ****P<0.0001.
CNS autoimmune disease induction and analysis. For adoptive induction of CNS disease with primary lymphocytes, mice were immunized s.c. with 100 μg AQP4 or MOG peptides in CFA containing 400 μg M. tuberculosis H37Ra (Difco Laboratories). After 10-12 days, lymph node cells were cultured with 15 μg/ml antigen for 3 days with 20 ng/ml IL-23 and 10 ng/ml IL-6, under Th17 polarizing conditions. 2×10^7 cells were injected i.v. into naïve recipients, which then received 200 ng B. pertussis toxin (Ptx) (List Biological) i.p. on days 0 and 2. Clinical scores: 0=no disease, 1=tail tone loss, 2=impaired righting, 3=severe paraparesis or paraplegia, 4=quadraparesis, and 5=moribund or death.
Histopathology. Brain, spinal cord, optic nerve, kidney and muscle tissue samples were fixed in 10% neutral-buffered formalin, paraffin-embedded, sectioned and stained with H&E. Meningeal and parenchymal inflammatory lesions and areas of demyelination were assessed in a blinded manner as described (39).

CD4^+ T cells = test: I-A^b:peptide tetramer binding by flow cytometry after peptide immunization; assay type: cell-based, mouse; conditions: Aire^−/− mice, I-A^b:IRBP p277-289 tetramer
Protocol: as §2
Flow cytometry. For analysis of tetramer binding, AQP4 p133-149, p202-218, IRBP p277-289 and hCLIP p87-101 IA^b tetramers conjugated to PE or APC were provided by the National Institute of Allergy and Infectious Diseases Tetramer Core Facility at Emory University. Lymphocytes were coincubated with 1 mg/ml tetramer conjugated to PE or APC for 2 hours at room temperature, washed and enriched using anti-PE magnetic microbeads (Miltenyi) over a magnetic column. Binding to hCLIP tetramer was used as a negative control. Dead cells were excluded using Live/Dead fixable Aqua Dead Cell Stain Kit (Invitrogen), lineage negative cells were excluded using antibodies to CD11b (M1/70), B220 (RA3-6B2) and CD8 (53-6.7) and positive cells were selected using antibodies to CD3 (145-2C11) and CD4 (RM4.5). 123count eBeads (Invitrogen) were used with unenriched and enriched samples for quantification of the frequency of tet^+CD4^+ T cells (total number of tet^+CD4+ T cells divided by total CD4^+ T cells per mouse). For figures showing tetramer staining, flow cytometry of the unenriched cells are shown. For analysis of GFP^+ T cells, mice were perfused with PBS, and the CNS was dissected, minced, digested with collagenase and DNase I (Roche), and isolated over a Ficoll gradient as described previously (39). Live CD4^+ cells were analyzed with a viability stain (Near-IR), and antibodies to CD11b, B220, CD8 and CD4. Apoptosis was analyzed separately using the same antibody staining, followed by Annexin V and 7-AAD staining in Annexin V binding buffer (BioLegend) per manufacturer's instructions. Cells were quantified using 123count eBeads.

[3] = system: draining lymph node cells; test: T cell cross-reactivity between AQP4 and AQP5, ^3H-thymidine proliferation; assay type: cell-based, mouse; conditions: AQP4-deficient mice immunized with 100 μg AQP5 p174-190; cells cultured with AQP4 201-220, then restimulated
Protocol: FIG. 8. T cells cross-react with AQP4 and AQP5. AQP4-deficient mice were immunized with 100 μg of AQP5 p174-190. Draining lymph node cells were cultured with AQP4 201-220, then restimulated with the different antigens. Proliferation was measured by ^3H-thymidine incorporation of the stimulation to antigen divided by the background stimulation (mean±SEM).
as §3

## AQP4 p24-35: nonpathogenic AQP4 T cell epitope (VAFKGVWTQAFW) [reference compound]
[1]
  discordance in proliferation between AQP4^−/− and WT mice: not observed

## AQP4 p201-220: AQP4 T cell epitope (201-220) that causes CNS autoimmunity in mice (HLFAINYTGASMNPARSFGP; UniProt P55088 201-220, looked up, fragment)
[2]
  peptide binding affinity for I-A^b: exceptionally high affinity
TCRα deficient mice
  clinical CNS autoimmune disease after transfer of primed Th17 cells: cause paralysis
  meningeal and parenchymal infiltrates vs OVA primed T cells: significantly more meningeal and parenchymal infiltrates

## IRBP p277-289: Aire-dependent T cell determinant of interphotoreceptor retinoid-binding protein (FLTVPVSRSLGPL; UniProt P49194 277-289, looked up, fragment) [reference compound]
CD4^+ T cells
  expansion of CD4^+ tet^+ T cells: promoted expansion

## LVGIYFTGCSMNPARSF [AQP5 p174-190, autoantigen in Sjögren's syndrome]
[3]
  T cell cross-reactivity: T cell cross-reactivity between AQP5 174-190 and AQP4 201-220
  T cell stimulation (proliferation): stimulatory
TCRα deficient mice
  clinical CNS autoimmune disease after transfer of primed Th17 cells: cause paralysis
  meningeal and parenchymal infiltrates vs OVA primed T cells: significantly more meningeal and parenchymal infiltrates
TCRα deficient mice; listed as AQP5 174-190
  clinical CNS autoimmune disease after transfer of primed Th17 cells: can induce clinical and histologic CNS autoimmune disease
